Experimental data: publication PMC9916978, “Enantioselective Human Serum Albumin Binding of Apremilast: Liquid Chromatographic, Fluorescence and Molecular Docking Study” (International Journal of Molecular Sciences, 2023)

Tests used:
[1] = target: T1, human serum albumin (HSA) (Homo sapiens, UniProt P02768); assay: Fluorescence quenching titration of HSA, stability constants; assay type: binding; settings: 10 mM phosphate buffer pH 7, 25 °C, excitation 280 nm
T1 construct: purchased Chiral Technologies Inc., a subsidiary of Daicel Chemical Industries Ltd
Experimental: The observed fluorescence intensities of HSA and the HSA–APR complexes at increasing APR concentrations were plotted against the total concentration of APR in the solution, and the stability constants were calculated according to Equation (18) by nonlinear parameter fitting.
The fluorescence measurements were carried out on a Jasco J-815 spectropolarimeter with a connected CDF-426L fluorescence detector and a temperature-controlled 10 mm cuvette holder (Jasco, Tokyo, Japan), thermostated to 25 °C with a Lauda water bath circulation thermostat (Lauda Brinkmann, Königshofen, Germany). Spectra Manager software (ver.: 2.08.04) was used for data analysis. The fluorescence analysis was performed with an excitation spectrum of 260–300 nm and detection of the cumulative fluorescence spectrum. […] A volume of 3 mL of the HSA stock solution with an HSA concentration of 0.32 μM was titrated with 2.5–30 μL of S- and, separately, R-APR solutions prepared at 3.75 mg mL^−1 in MeOH, which equals to a range of 6.8–80.6 μM of APR in the measured solution.
The stability constants of both enantiomers were calculated. […] Note that since the fluorescence signal of the ligand (APR) was subtracted for each sample, (IAPR) could be excluded from this equation (8) Iobs.=IHSA·χHSA+IAPR−HSA·χAPR−HSA where ΧHSA is the mole fraction of free HSA, while ΧAPR-HSA is the mole fraction of the APR-HSA complex. […]

[2] = target: T1, human serum albumin (HSA); assay: van 't Hoff thermodynamic analysis on the Chiral-HSA column; assay type: binding; settings: 10 mM phosphate buffer/IPA 96/4 v/v%, 10–30 °C, transfer from mobile phase to HSA stationary phase
Experimental: The separation temperature is one of the main determinant factors that can affect selectivity, resolution, retention factor and even the elution order of enantiomers during HPLC enantioseparations. To investigate the effects of temperature and to gain a better understanding of the mechanistic aspects of the enantiodiscrimination process on the Chiral-HSA column, thermodynamic analysis was performed in a 10 mM phosphate buffer/IPA 96/4 v/v% mixture.
To understand the energetic interactions between the analytes and the stationary phase, the classical van ’t Hoff approach was applied assuming only enantioselective interaction sites on the stationary phase. However, it should be noted that it is more realistic if both enantioselective and non-enantioselective interactions are considered.
Van ’t Hoff plots were constructed according to Equation (1) by plotting the natural logarithm of the retention factor as a function of the inverse of the absolute temperature in the temperature range of 10–30 °C, with 5 °C increments (a higher temperature was not applied due to possible column damage) (1) lnk=[…]+ΔS^°/R+lnΦ where R stands for the universal gas constant, T is the temperature in Kelvin, and k is the retention factor of the individual enantiomers. ΔH° denotes the standard enthalpy, while ΔS° is the standard entropy change of transfer of the solute from the mobile phase to the stationary phase, and Φ is the phase ratio of the HSA column. If ΔH° is constant in the selected temperature range, a linear relationship is obtained between lnk and 1/T, with a slope of −ΔH°/R and an intercept of ΔS°/R + lnΦ. Since the value of the phase ratio is seldom known, ΔS°* values (ΔS°* = ΔS° + RlnΦ) are often used to compensate for the uncertainty in Φ [38, 39].
Similarly, the differences in the change of standard enthalpy Δ(ΔH°) and standard entropy Δ(ΔS°) for the two enantiomers moving from the mobile phase to the stationary phase were also calculated according to the modified van ’t Hoff equation:(2) lnα=−∆(∆H^°)/RT+∆(∆S^°)/R
The isoenantioselective temperatures (Tiso) were also calculated as the ratio between Δ(ΔH°) and Δ(ΔS°), according to Equation (3). Tiso represents the temperature at which the enthalpy contribution is compensated by the entropic term, which means that […] (Δ(ΔG°)) equals zero. The thermodynamic parameter Δ(ΔG°) provides information on the strength of binding between selector and selectant, with more negative values indicating a more efficient binding. Consequently, a value of Δ(ΔG°) = 0 means that there is no difference between the binding strength of the enantiomers; therefore, at Tiso, the two enantiomers co-elute, and no separation is achieved. (3) Tiso=∆(∆H^°)/∆(∆S^°) (4) ∆(∆G^°)=∆(∆H^°)−T∗∆(∆S^°)

T1 sequence (P02768 25-609): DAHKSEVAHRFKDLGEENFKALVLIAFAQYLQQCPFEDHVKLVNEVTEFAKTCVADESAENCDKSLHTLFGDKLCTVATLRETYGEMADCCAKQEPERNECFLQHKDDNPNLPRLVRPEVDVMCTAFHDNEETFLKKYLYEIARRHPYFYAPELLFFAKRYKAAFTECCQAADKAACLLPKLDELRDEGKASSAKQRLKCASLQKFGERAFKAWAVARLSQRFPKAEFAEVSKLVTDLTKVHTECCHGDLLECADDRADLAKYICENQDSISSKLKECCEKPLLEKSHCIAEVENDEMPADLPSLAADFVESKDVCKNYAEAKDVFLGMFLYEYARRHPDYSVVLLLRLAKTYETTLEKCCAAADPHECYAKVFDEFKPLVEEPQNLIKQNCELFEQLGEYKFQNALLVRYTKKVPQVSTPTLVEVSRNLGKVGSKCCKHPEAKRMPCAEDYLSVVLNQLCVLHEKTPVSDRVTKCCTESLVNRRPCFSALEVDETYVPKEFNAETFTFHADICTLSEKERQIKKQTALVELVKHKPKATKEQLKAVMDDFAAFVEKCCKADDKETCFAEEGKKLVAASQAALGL

Compound	stability constant K of the enantiomer–HSA complex [1] [M⁻¹]	Δ(Δ)G° [2] [kcal/mol]	Δ(Δ)H° [2] [kcal/mol]	Δ(Δ)S° [2] [J/molK]
CCOc1cc([C@H](CS(C)(=O)=O)N2C(=O)c3cccc(NC(C)=O)c3C2=O)ccc1OC [R-APR]	6450	-0.906	-6.338	−76.29
CCOc1cc([C@@H](CS(C)(=O)=O)N2C(=O)c3cccc(NC(C)=O)c3C2=O)ccc1OC [S-APR, apremilast]	10400	-1.06	-7.237	−86.78
